Test results from ChEMBL document CHEMBL5214923, “Contemporary mTOR inhibitor scaffolds to diseases breakdown: A patent review (2015-2021)” (Eur J Med Chem, 2022).

Tests used:
[1] = target: Phosphatidylinositol 4,5-bisphosphate 3-kinase catalytic subunit gamma isoform (Homo sapiens, UniProt P48736); assay: Inhibition of PI3Kgamma (unknown origin) by TR-FRET assay
[2] = target: Phosphatidylinositol 4,5-bisphosphate 3-kinase catalytic subunit beta isoform (Homo sapiens, UniProt P42338); assay: Inhibition of PI3Kbeta (unknown origin) by TR-FRET assay
Phosphatidylinositol 4,5-bisphosphate 3-kinase catalytic subunit beta isoform, sequence (P42338 whole entry, canonical isoform): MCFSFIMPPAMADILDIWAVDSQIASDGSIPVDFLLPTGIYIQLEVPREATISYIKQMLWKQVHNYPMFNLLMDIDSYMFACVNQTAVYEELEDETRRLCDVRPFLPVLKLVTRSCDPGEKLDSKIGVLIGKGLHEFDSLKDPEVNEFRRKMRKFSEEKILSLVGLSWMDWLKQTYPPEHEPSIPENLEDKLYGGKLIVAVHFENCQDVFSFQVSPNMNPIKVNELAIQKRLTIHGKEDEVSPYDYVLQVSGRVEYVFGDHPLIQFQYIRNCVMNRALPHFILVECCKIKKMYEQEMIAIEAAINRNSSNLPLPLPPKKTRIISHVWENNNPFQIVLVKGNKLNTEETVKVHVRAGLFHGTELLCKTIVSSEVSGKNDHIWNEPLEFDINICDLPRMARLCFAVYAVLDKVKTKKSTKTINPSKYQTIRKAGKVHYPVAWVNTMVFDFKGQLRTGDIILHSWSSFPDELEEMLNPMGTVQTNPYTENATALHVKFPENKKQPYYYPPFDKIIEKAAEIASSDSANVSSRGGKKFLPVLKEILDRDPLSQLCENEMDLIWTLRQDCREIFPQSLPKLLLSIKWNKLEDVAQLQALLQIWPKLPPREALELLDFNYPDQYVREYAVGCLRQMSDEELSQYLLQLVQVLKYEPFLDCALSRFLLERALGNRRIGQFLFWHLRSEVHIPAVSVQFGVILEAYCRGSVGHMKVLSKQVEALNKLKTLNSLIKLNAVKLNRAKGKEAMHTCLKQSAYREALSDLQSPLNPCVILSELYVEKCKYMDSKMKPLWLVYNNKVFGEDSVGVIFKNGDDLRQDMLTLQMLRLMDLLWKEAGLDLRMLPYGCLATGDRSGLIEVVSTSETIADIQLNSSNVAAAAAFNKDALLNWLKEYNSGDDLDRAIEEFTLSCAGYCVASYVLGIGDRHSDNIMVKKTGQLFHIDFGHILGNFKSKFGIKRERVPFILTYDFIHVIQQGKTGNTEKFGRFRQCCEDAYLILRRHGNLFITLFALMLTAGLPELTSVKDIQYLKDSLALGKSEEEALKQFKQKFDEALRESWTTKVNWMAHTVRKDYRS

[3] = target: T1, Phosphatidylinositol 4,5-bisphosphate 3-kinase catalytic subunit delta isoform (Homo sapiens, UniProt O00329); assay: Inhibition of PI3Kdelta (unknown origin) by TR-FRET assay
T1 sequence (O00329 whole entry): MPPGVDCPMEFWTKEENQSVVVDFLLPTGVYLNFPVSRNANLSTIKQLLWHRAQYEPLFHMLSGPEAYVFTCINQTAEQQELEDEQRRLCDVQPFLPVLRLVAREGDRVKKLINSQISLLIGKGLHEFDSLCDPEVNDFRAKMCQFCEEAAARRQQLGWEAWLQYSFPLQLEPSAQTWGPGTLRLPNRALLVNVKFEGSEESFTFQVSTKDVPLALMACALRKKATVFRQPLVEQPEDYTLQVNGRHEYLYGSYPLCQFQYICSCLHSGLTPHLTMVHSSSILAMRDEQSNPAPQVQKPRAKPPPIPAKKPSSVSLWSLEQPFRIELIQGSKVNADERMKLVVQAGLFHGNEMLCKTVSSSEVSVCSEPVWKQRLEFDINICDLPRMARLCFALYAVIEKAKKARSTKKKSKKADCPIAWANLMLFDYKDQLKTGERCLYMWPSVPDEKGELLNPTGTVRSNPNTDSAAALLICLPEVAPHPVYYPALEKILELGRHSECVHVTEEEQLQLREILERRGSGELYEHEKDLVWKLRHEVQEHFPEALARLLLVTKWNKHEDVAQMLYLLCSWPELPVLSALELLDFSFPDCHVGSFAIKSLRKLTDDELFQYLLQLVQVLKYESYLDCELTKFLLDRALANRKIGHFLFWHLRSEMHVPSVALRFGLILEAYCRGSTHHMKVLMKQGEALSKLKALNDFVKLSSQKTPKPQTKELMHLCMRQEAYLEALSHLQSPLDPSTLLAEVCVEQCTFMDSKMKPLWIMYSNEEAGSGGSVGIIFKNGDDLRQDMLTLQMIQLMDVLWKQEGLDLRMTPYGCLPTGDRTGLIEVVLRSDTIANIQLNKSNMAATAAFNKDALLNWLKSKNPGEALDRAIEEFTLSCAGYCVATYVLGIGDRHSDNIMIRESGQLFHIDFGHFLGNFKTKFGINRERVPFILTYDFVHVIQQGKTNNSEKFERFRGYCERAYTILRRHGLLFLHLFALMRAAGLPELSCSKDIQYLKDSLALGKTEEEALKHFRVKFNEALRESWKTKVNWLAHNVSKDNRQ

[4] = target: T2, Phosphatidylinositol 4,5-bisphosphate 3-kinase catalytic subunit alpha isoform (Homo sapiens, UniProt P42336); assay: Inhibition of PI3Kalpha (unknown origin) by TR-FRET assay
T2 sequence (P42336 whole entry, canonical isoform): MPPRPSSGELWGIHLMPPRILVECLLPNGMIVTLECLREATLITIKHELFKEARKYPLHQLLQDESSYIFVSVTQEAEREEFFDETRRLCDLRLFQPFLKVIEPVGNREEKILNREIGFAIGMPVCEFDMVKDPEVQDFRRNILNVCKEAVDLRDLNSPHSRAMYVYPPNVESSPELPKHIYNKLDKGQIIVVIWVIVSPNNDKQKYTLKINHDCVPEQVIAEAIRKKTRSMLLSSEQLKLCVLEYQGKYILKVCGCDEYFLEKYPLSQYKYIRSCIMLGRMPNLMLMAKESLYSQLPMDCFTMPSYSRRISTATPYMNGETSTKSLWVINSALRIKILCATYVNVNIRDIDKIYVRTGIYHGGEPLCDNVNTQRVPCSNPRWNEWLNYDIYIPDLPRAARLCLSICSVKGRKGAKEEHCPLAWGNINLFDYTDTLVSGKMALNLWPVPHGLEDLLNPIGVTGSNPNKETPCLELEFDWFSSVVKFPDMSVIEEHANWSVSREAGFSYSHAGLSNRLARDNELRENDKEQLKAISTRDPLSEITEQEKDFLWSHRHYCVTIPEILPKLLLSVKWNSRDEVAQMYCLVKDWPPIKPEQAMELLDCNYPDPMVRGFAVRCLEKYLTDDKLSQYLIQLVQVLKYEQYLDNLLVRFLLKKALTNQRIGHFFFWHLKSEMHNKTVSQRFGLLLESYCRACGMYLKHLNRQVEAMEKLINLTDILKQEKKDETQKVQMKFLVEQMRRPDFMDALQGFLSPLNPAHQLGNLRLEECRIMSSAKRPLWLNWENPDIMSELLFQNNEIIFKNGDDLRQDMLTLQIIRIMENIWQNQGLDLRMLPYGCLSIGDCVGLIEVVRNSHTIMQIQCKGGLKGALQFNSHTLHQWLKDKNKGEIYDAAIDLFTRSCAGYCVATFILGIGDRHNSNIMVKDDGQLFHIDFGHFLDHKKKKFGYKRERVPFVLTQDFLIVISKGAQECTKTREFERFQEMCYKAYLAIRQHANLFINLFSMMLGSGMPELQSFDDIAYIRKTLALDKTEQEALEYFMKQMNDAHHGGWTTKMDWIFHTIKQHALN

[5] = target: T2, Phosphatidylinositol 4,5-bisphosphate 3-kinase catalytic subunit alpha isoform; assay: Inhibition of PI3Kalpha (unknown origin)

Phosphatidylinositol 4,5-bisphosphate 3-kinase catalytic subunit gamma isoform, sequence (P48736 whole entry, canonical isoform): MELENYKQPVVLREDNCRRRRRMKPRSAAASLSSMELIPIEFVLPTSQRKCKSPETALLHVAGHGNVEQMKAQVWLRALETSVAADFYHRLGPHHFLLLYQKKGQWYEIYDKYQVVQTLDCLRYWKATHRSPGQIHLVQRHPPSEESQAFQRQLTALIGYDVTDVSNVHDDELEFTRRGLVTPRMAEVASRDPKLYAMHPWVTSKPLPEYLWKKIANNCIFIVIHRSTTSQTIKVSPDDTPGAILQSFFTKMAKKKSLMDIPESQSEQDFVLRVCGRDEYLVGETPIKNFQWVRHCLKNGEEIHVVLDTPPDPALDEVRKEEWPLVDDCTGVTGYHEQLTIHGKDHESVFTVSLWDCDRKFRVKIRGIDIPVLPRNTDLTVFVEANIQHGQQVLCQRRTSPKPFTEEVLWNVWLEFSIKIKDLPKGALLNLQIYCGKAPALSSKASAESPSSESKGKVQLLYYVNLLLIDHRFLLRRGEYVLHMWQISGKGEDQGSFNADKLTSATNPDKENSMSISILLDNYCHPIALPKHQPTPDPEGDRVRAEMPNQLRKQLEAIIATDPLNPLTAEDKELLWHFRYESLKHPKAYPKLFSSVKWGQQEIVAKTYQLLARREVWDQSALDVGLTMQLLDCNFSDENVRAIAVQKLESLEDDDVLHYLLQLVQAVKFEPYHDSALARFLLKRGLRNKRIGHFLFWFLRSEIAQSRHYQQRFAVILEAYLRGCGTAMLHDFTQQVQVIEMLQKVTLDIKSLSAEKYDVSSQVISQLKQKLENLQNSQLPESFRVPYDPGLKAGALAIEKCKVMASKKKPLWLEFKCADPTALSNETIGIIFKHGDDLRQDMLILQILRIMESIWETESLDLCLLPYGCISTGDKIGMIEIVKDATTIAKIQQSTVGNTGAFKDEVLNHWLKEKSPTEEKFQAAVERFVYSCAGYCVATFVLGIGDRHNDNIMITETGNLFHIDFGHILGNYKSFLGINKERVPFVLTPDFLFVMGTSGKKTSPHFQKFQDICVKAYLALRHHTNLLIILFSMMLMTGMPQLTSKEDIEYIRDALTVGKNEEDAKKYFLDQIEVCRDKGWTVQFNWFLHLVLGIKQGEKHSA

Compound | IC50 [1] [nM] | IC50 [2] [nM] | IC50 [3] [nM] | IC50 [4] [nM] | IC50 [5] [nM]
NOCCOCCOCCOCCC(=O)N1CCN(c2cnc3ccc(-c4cnc(Cl)c(NS(=O)(=O)c5ccc(F)cc5)c4)cc3n2)CC1 | 1.33 | 30.2 | < 0.495 | < 4.95 | 
CC(C)(O)c1ccc(-c2cnc3c(n2)N(CC2CCOCC2)CC(=O)N3)cn1 |  |  |  |  | > 30000
